Data as given in patent US10392428B2, “GLP-1 derivatives and uses thereof” (Novo Nordisk A/S, priority 2014, dated 2019).
Where two headings read alike, the source gives them in different places.

Experiment: Pharmacokinetic study in minipigs (i.v.)
Settings: male, Göttingen, minipig, in vivo, iv
Experimental: The derivatives of Examples 12, 14, and 15 were dosed 2 nmol/kg. The derivatives of Examples 1 and 2 were dosed 15 nmol/kg.

[1] = minipigs, i.v., 5 nmol/kg, harmonic mean, read-out: Terminal half-live (converted)
[2] = minipigs, i.v., 2 nmol/kg, harmonic mean, read-out: Terminal half-live (converted)

SMILES	half-life [1] [h]	half-life [2] [h]	also measured
CC[C@H](C)[C@H](NC(=O)[C@H](Cc1ccccc1)NC(=O)[C@H](CCC(=O)O)NC(=O)[C@H](CCCNC(=N)N)NC(=O)[C@H](C)NC(=O)[C@H](C)NC(=O)[C@H](CCC(N)=O)NC(=O)[C@H](CCC(=O)O)NC(=O)[C@H](CCC(=O)O)NC(=O)[C@H](CC(C)C)NC(=O)[C@H](Cc1ccc(O)cc1)NC(=O)[C@H](CO)NC(=O)[C@H](CO)NC(=O)[C@@H](NC(=O)[C@H](CC(=O)O)NC(=O)[C@H](CO)NC(=O)[C@@H](NC(=O)[C@H](Cc1ccccc1)NC(=O)[C@@H](NC(=O)CNC(=O)[C@H](CCC(=O)O)NC(=O)C(C)(C)NC(=O)[C@@H](N)Cc1c[nH]cn1)[C@@H](C)O)[C@@H](C)O)C(C)C)C(=O)N[C@@H](C)C(=O)N[C@@H](Cc1c[nH]c2ccccc12)C(=O)N[C@@H](CC(C)C)C(=O)N[C@H](C(=O)N[C@@H](CCCNC(=N)N)C(=O)NCC(=O)N[C@@H](CCCNC(=N)N)C(=O)N[C@@H](CCCCNC(=O)COCCOCCNC(=O)COCCOCCNC(=O)COCCOCCNC(=O)COCCOCCNC(=O)COCCOCCNC(=O)COCCOCCNC(=O)COCCOCCNC(=O)COCCOCCNC(=O)[C@H](CCCCNC(=O)CC[C@H](NC(=O)[C@H]1CC[C@H](CNC(=O)CCCCCCCCCCCCCCCCCCC(=O)O)CC1)C(=O)O)NC(=O)CC[C@H](NC(=O)[C@H]1CC[C@H](CNC(=O)CCCCCCCCCCCCCCCCCCC(=O)O)CC1)C(=O)O)C(=O)O)C(C)C [Example 13]	119	–	–
CC[C@H](C)[C@H](NC(=O)[C@H](Cc1ccccc1)NC(=O)[C@H](CCC(=O)O)NC(=O)[C@H](CCCNC(=N)N)NC(=O)[C@H](C)NC(=O)[C@H](C)NC(=O)[C@H](CCC(N)=O)NC(=O)[C@H](CCC(=O)O)NC(=O)[C@H](CCC(=O)O)NC(=O)[C@H](CC(C)C)NC(=O)[C@H](Cc1ccc(O)cc1)NC(=O)[C@H](CO)NC(=O)[C@H](CO)NC(=O)[C@@H](NC(=O)[C@H](CC(=O)O)NC(=O)[C@H](CO)NC(=O)[C@@H](NC(=O)[C@H](Cc1ccccc1)NC(=O)[C@@H](NC(=O)CNC(=O)[C@H](CCC(=O)O)NC(=O)C(C)(C)NC(=O)[C@@H](N)Cc1c[nH]cn1)[C@@H](C)O)[C@@H](C)O)C(C)C)C(=O)N[C@@H](C)C(=O)N[C@@H](Cc1c[nH]c2ccccc12)C(=O)N[C@@H](CC(C)C)C(=O)N[C@H](C(=O)N[C@@H](CCCNC(=N)N)C(=O)NCC(=O)N[C@@H](CCCNC(=N)N)C(=O)N[C@@H](CCCCNC(=O)COCCOCCNC(=O)COCCOCCNC(=O)[C@H](CCCCNC(=O)COCCOCCNC(=O)COCCOCCNC(=O)COCCOCCNC(=O)COCCOCCNC(=O)CC[C@H](NC(=O)[C@H]1CC[C@H](CNC(=O)CCCCCCCCCCCCCCCCCCC(=O)O)CC1)C(=O)O)NC(=O)COCCOCCNC(=O)COCCOCCNC(=O)COCCOCCNC(=O)COCCOCCNC(=O)CC[C@H](NC(=O)[C@H]1CC[C@H](CNC(=O)CCCCCCCCCCCCCCCCCCC(=O)O)CC1)C(=O)O)C(=O)O)C(C)C [Example 14]	–	135	–
CC[C@H](C)[C@H](NC(=O)[C@H](Cc1ccccc1)NC(=O)[C@H](CCC(=O)O)NC(=O)[C@H](CCCNC(=N)N)NC(=O)[C@H](C)NC(=O)[C@H](C)NC(=O)[C@H](CCC(N)=O)NC(=O)[C@H](CCC(=O)O)NC(=O)[C@H](CCC(=O)O)NC(=O)[C@H](CC(C)C)NC(=O)[C@H](Cc1ccc(O)cc1)NC(=O)[C@H](CO)NC(=O)[C@H](CO)NC(=O)[C@@H](NC(=O)[C@H](CC(=O)O)NC(=O)[C@H](CO)NC(=O)[C@@H](NC(=O)[C@H](Cc1ccccc1)NC(=O)[C@@H](NC(=O)CNC(=O)[C@H](CCC(=O)O)NC(=O)C(C)(C)NC(=O)[C@@H](N)Cc1c[nH]cn1)[C@@H](C)O)[C@@H](C)O)C(C)C)C(=O)N[C@@H](C)C(=O)N[C@@H](Cc1c[nH]c2ccccc12)C(=O)N[C@@H](CC(C)C)C(=O)N[C@H](C(=O)N[C@@H](CCCNC(=N)N)C(=O)NCC(=O)N[C@@H](CCCNC(=N)N)C(=O)N[C@@H](CCCCNC(=O)COCCOCCNC(=O)COCCOCCNC(=O)COCCOCCNC(=O)COCCOCCNC(=O)[C@H](CCCCNC(=O)COCCOCCNC(=O)COCCOCCNC(=O)CC[C@H](NC(=O)[C@H]1CC[C@H](CNC(=O)CCCCCCCCCCCCCCCCCCC(=O)O)CC1)C(=O)O)NC(=O)COCCOCCNC(=O)COCCOCCNC(=O)CC[C@H](NC(=O)[C@H]1CC[C@H](CNC(=O)CCCCCCCCCCCCCCCCCCC(=O)O)CC1)C(=O)O)C(=O)O)C(C)C [Example 15]	–	142	–
CC[C@H](C)[C@H](NC(=O)[C@H](Cc1ccccc1)NC(=O)[C@H](CCC(=O)O)NC(=O)[C@H](CCCNC(=N)N)NC(=O)[C@H](C)NC(=O)[C@H](C)NC(=O)[C@H](CCC(N)=O)NC(=O)[C@H](CCC(=O)O)NC(=O)[C@H](CCC(=O)O)NC(=O)[C@H](CC(C)C)NC(=O)[C@H](Cc1ccc(O)cc1)NC(=O)[C@H](CO)NC(=O)[C@H](CO)NC(=O)[C@@H](NC(=O)[C@H](CC(=O)O)NC(=O)[C@H](CO)NC(=O)[C@@H](NC(=O)[C@H](Cc1ccccc1)NC(=O)[C@@H](NC(=O)CNC(=O)[C@H](CCC(=O)O)NC(=O)C(C)(C)NC(=O)[C@@H](N)Cc1c[nH]cn1)[C@@H](C)O)[C@@H](C)O)C(C)C)C(=O)N[C@@H](C)C(=O)N[C@@H](Cc1c[nH]c2ccccc12)C(=O)N[C@@H](CC(C)C)C(=O)N[C@H](C(=O)N[C@@H](CCCNC(=N)N)C(=O)NCC(=O)N[C@@H](CCCNC(=N)N)C(=O)N[C@@H](CCCCNC(=O)COCCOCCNC(=O)COCCOCCNC(=O)COCCOCCNC(=O)COCCOCCNC(=O)[C@H](CCCCNC(=O)CC[C@H](NC(=O)[C@H]1CC[C@H](CNC(=O)CCCCCCCCCCCCCCCCCCC(=O)O)CC1)C(=O)O)NC(=O)CC[C@H](NC(=O)[C@H]1CC[C@H](CNC(=O)CCCCCCCCCCCCCCCCCCC(=O)O)CC1)C(=O)O)C(=O)O)C(C)C [Example 8, N{Epsilon-37}-[2-[2-[2-[[2-[2-[2-[[2-[2-[2-[[2-[2-[2-[[(2S)-2,6-bis[[(4S)-4-carboxy-4-[[4-[(19-carboxynonadecanoylamino)methyl]cyclohexanecarbonyl]amino]butanoyl]amino]hexanoyl]amino]ethoxy]ethoxy]acetyl]amino]ethoxy]ethoxy]acetyl]amino]ethoxy]ethoxy]acetyl]amino]ethoxy]ethoxy]acetyl]-[Aib8,Glu22,Arg26,Arg34,Lys37]-GLP-1-(7-37)-peptide]	145	–	–
CCCCCCCCCCCC(=O)NCCOCCOCC(=O)NCCCC[C@H](NC(=O)COCCOCCNC(=O)CCCCCCCCCCC)C(=O)NCCOCCOCC(=O)NCCCC[C@H](NC(=O)[C@H](CCCNC(=N)N)NC(=O)C(C)(C)NC(=O)[C@H](CCCCN)NC(=O)[C@@H](NC(=O)[C@H](CC(C)C)NC(=O)[C@H](Cc1c[nH]c2ccccc12)NC(=O)[C@H](C)NC(=O)[C@@H](NC(=O)[C@H](Cc1ccccc1)NC(=O)[C@H](CCC(=O)O)NC(=O)[C@H](CCCCN)NC(=O)[C@H](C)NC(=O)[C@H](C)NC(=O)[C@H](CCC(N)=O)NC(=O)C(C)(C)NC(=O)[C@H](CCC(=O)O)NC(=O)[C@H](CC(C)C)NC(=O)[C@H](Cc1ccc(O)cc1)NC(=O)[C@H](CO)NC(=O)[C@H](CO)NC(=O)[C@@H](NC(=O)[C@H](CC(=O)O)NC(=O)[C@H](CO)NC(=O)[C@@H](NC(=O)[C@H](Cc1ccccc1)NC(=O)[C@@H](NC(=O)CNC(=O)[C@H](CCC(=O)O)NC(=O)C(C)(C)NC(=O)[C@@H](N)Cc1c[nH]cn1)[C@@H](C)O)[C@@H](C)O)C(C)C)[C@@H](C)CC)C(C)C)C(N)=O [Comparative Example 1, N{Epsilon-37}-[2-[2-[2-[[(2S)-2,6-bis[[2-[2-[2-(dodecanoylamino)ethoxy]ethoxy]acetyl]amino]hexanoyl]amino]ethoxy]ethoxy]acetyl]-[Aib8,Aib22,Aib35,Lys37]-GLP-1-(7-37)-peptide Amide, reference compound]	–	–	half-life: 3 h
